According to patent US20230172897A1, “METHODS OF TREATING BREAST CANCERS WITH SELECTIVE ANDROGEN RECEPTOR MODULATORS AND ADDITIONAL THERAPEUTIC AGENTS” (VERU, INC., priority 2021, published 2023):

Key:
GR = molecular target: T1, GR (Rattus norvegicus, UniProt P06536); test: Transcriptional activation (luciferase) in HEK-293 cells; type: cell-based
T1 construct: expressed in transfected cells
Description: (§1) Rat GR, MR, PR, ER-α and ER-β were individually cloned into a pCR3.1 vector backbone. Sequencing was performed to verify the absence of any mutations. HEK-293 cells were plated at 90,000 cells per well of a 24 well plate in Dulbecco's Minimal Essential Media supplemented with 5% charcoal-stripped FBS. […] Luciferase assays were performed 48 h after transfection. Transcriptional activation values are represented as firefly luciferase normalized to renilla luciferase.

PR = molecular target: T2, PR (Rattus norvegicus, UniProt Q63449); test: as above; type: cell-based
T2 construct: expressed in transfected cells
T2 sequence (Q63449 1-923): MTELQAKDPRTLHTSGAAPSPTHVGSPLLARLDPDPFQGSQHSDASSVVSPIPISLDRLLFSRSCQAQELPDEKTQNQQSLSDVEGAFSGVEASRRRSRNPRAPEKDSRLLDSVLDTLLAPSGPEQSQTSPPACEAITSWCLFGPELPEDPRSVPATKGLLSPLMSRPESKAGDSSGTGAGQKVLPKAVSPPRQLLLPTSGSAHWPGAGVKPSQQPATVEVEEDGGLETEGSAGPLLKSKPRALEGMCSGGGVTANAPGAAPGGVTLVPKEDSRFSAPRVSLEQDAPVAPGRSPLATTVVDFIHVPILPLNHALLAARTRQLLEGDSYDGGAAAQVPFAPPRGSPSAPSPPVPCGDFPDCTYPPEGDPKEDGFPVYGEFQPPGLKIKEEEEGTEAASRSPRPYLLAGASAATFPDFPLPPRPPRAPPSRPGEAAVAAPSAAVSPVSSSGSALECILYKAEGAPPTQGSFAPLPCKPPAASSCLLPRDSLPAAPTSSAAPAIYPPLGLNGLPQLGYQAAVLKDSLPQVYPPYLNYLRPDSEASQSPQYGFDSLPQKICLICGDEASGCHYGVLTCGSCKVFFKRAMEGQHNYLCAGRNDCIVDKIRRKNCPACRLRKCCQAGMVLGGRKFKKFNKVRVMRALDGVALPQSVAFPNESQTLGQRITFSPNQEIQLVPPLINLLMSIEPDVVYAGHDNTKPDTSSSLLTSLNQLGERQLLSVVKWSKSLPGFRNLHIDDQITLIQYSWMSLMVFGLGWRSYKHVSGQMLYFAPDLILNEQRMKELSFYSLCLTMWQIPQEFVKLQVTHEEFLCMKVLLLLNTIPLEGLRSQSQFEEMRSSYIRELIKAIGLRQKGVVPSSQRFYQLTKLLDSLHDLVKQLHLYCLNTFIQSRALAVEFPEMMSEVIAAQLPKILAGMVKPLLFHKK
Description: as §1

[1] = tested on: MDA-MB-231 triple negative breast cancer cells; test: SRB cell viability, MDA-MB-231 cells infected with adenovirus containing LacZ or AR; type: cell-based
Description: (§2) The SRB assay was used to determine cell number during cytotoxocity experiments. The following protocol was used: • 1. Cells were detached with 0.25% trypsin. • 2. Experimental cultures were cultured in 96-well microtiter plates (200 uL growth medium per well; 1,000-200,000 cells per well). • 3. Cultures were fixed with 50 uL 50% TCA (4° C.). (see cell fixation protocol for details). • 4. Fixed cells were stained with 50 uL 0.4% (wt/vol) SRB in 1% acetic acid for 10 minutes. • 5. SRB was removed and the cultures were quickly* rinsed 5 times with 1% acetic acid to remove unbound dye.** • 6. Cultures were air-dried overnight until there was no visible moisture. • 7. The cellular protein-bound SRB was dissolved with 200 uL unbuffered Tris base (10 mM, pH 10.5) for 30 minutes on a rocking platform shaker. • 8. Absorbance was read at 540 nm. * quickly performing rinsing process was to prevent desorption of protein-bound SRB ** completely removed residual wash solution by sharply flicking plates over sink.
(§3) The following protocol was used for fixing cells: • a. 50 uL of 50% TCA (4° C.) was gently layered on the top of growth medium in each well to make a final TCA concentration of 10%. • b. Cultures were incubated at 4° C. for 1 hour. • c. Cultures were washed 5 times with tap water to remove TCA, growth medium, low-molecular-weight metabolites, and serum protein. • d. Plates were air-dried until there was no visible moisture.
Cells were treated in charcoal stripped FBS (FIGS. 4A, 4C, 4E, 4G, 4I, 4K, 4M and 4O) or full serum (FIGS. 4B, 4D, 4F, 4H, 4J, 4L, 4N and 4P) for 3 days, fixed and stained with […] (SRB) to measure cell viability. Anti-proliferative IC50 values were calculated in breast cancer cells and compared to transactivation values, i.e., EC50 (agonists) and IC50 (antagonists) values, generated in HEK-293 cells.

[2] = Phase 3 trials, muscle wasting in non-small cell lung cancer; type: in vivo, human; conditions: 3 mg daily
Excerpt: These include: 1. Protocol G100401, a Phase 1 single ascending dose study in 96 healthy, young, male volunteers; 2. Protocol G100402, a Phase 1 multiple ascending dose study in 50 healthy, young, male volunteers, and 23 elderly male volunteers with truncal obesity; 3. Protocol G100503, a Phase 1 single dose pharmacokinetic study to assess the effect of a dosage regimen that simulates a sustained release formulation to an immediate release formulation in 18 healthy, young male volunteers and 18 postmenopausal women; 4. Protocol G100506, a Phase 1 single dose pharmacokinetic study to assess the relative bioavailability of a 3 mg hard shell capsule formulation to be used during continued clinical development and to assess the effect of food on the pharmacokinetics of the 3 mg softgel formulation in 27 healthy, young, male volunteers; 5. Protocol 006, a Phase 1 single dose and multiple dose pharmacokinetic study in 24 postmenopausal, Japanese women; 6. Protocol G200501, a Phase 2 study in 60 postmenopausal women and 60 elderly men to assess lean body mass and physical function; 7. Protocol 003, a Phase 1b study in 44 postmenopausal women; 8.

[3] = tested on: HCC-38 triple negative breast cancer cells; test: SRB cell viability, HCC-38 cells infected with adenovirus containing LacZ or AR; type: cell-based; conditions: 3 days
Description: as §2
as §3, with “Plates were air-dried until there was no visible moisture.” left out

T1 sequence (P06536 whole entry): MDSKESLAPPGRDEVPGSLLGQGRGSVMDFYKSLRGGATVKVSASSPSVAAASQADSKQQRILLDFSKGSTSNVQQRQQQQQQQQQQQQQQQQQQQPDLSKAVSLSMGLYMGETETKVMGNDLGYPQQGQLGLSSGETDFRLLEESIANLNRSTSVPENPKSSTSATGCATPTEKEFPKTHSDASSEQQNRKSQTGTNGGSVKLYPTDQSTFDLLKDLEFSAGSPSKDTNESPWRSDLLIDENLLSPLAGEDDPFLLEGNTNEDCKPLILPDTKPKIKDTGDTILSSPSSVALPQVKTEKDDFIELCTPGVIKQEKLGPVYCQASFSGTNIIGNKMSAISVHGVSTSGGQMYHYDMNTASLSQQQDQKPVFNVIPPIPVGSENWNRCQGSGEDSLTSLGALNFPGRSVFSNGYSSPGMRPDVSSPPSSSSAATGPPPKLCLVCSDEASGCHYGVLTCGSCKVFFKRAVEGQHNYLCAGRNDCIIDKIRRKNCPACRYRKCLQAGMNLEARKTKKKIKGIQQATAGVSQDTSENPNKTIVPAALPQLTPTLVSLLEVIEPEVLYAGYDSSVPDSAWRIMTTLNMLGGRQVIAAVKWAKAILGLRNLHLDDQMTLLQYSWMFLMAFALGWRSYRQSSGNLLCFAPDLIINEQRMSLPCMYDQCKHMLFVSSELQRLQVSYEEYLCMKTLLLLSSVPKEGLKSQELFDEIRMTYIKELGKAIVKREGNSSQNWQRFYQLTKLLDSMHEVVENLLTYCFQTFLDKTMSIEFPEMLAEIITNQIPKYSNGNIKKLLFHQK

Compound	GR-mediated transactivation (GR; agonist mode, all tested concentrations)	dexamethasone-induced GR-mediated transactivation (GR; antagonist mode)	fold weaker than the endogenous agonist for PR (PR; agonist mode)	increase of PR transactivation (PR; agonist mode, 1 μM) [fold]	increase of PR transactivation (PR; agonist mode, 10 μM) [fold]	PR antagonist potency in comparison to Formula IX (times more potent) (PR; antagonist mode) [times]	PR antagonist potency in comparison to R-enantiomer of Formula IX (times more potent) (PR; antagonist mode) [times]	PR antagonist potency in comparison to RU486 (fold weaker) (PR; antagonist mode)	inhibition of PR activity, dose response (PR; antagonist mode)	growth inhibitory effect on MDA-MB-231 cells in the presence of bicalutamide ([1]; AR cells, 10 μM bicalutamide)	MDA-MB-231 cell growth ([1]; cells with AR, 3 days)	lean body mass [2]	HCC-38 cell growth [3]
C[C@](O)(COc1ccc(C#N)cc1)C(=O)Nc1ccc(C#N)c(Cl)c1 [Formula VIII, (S)—N-(3-chloro-4-cyanophenyl)-3-(4-cyanophenoxy)-2-hydroxy-2-methylpropanamide]	did not induce	failed to alter	greater than 10,000 fold	3	8	10	100	about 1,000 fold	potent partial inhibition				
C[C@](O)(COc1ccc(C#N)cc1)C(=O)Nc1ccc(C#N)c(C(F)(F)F)c1 [Formula IX, (S)—N-(4-Cyano-3-(trifluoromethyl)phenyl)-3-(4-cyanophenoxy)-2-hydroxy-2-methylpropanamide]										weakened growth inhibitory effects	inhibited	increased	inhibited
